Assay results as given in patent publication EP4793271A1, “NEUROPROTECTIVE AGENT” (National Center of Neurology and Psychiatry, priority 2023, dated 2025).

How the values were obtained:
[1] = target: T1, nicotinamide phosphoribosyl transferase (NAMPT) (Homo sapiens, UniProt P43490); assay: NAMPT activity measurement (NMN fluorescence detection); format: biochemical; settings: NAMPT recombinant protein, 10 µM Nam; for IC50: read-out: Evaluation on NAMPT inhibitory
T1 construct: purchased Medical & Biological Laboratories Co., Ltd. (MBL)
T1 sequence (P43490 whole entry, species assumed): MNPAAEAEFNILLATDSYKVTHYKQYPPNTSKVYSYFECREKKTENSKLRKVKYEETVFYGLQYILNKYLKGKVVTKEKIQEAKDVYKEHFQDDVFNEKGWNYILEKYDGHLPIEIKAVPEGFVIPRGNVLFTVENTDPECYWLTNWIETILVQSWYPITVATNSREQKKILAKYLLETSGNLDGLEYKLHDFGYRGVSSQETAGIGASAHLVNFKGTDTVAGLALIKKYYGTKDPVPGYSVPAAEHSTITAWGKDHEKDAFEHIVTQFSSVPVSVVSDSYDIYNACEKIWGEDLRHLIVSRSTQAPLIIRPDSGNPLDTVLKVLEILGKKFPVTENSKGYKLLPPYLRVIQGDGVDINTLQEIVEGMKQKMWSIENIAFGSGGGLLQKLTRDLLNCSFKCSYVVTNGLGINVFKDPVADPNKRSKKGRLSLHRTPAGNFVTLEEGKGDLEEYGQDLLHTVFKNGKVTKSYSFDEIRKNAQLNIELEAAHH
Method: The compound of the present invention was evaluated for the ability to influence the activity of nicotinamide phosphoribosyl transferase (NAMPT) which is an enzyme that metabolizes nicotinamide (Nam), not the target SARM1.
The enzymatic reaction of NAMPT was carried out by adding NAMPT recombinant protein (manufactured by Medical & Biological Laboratories Co., Ltd. (MBL)) to a reaction solution containing the substrate Nam, phosphoribosylpyrophosphate (PRPP), ATP, and the like (composition: […] (pH = 7.4), 2 µM ATP, 0.5 µM PRPP, 0.02% BSA, 2 µM DTT, 1.2 µM MgCl2, and 10 µM Nam). The amount of the reaction product NMN was detected by detecting the fluorescent signal of a fluorescent substance obtained through the reaction of 2-acetylbenzofuran with NMN using SpectraMax M2 (Molecular Devices) (excitation: 421 nm, fluorescence: 480 nm) (Moriya et al, Chemical Communications 2013, 49 11500). The test compound was added at final concentrations of 10 µM, 3 µM, 1 µM, 300 nM, 100 nM, 30 nM, 10 nM, and 3 nM to the NMN synthesis reaction system described above. The NMN-derived fluorescent signal was normalized against a control group and plotted as the function of the test compound concentrations, and the compound was evaluated for its NAMPT inhibitory effect by calculating IC50.
The IC50 value was evaluated as ∘ for ≥1 µM and as Δ for ≥0.1 µM.

[2] = test system: primary cultured cells of mouse fetus-derived dorsal root ganglia (DRGs); assay: Suppression of axonal degeneration after axotomy in DRG explant culture; format: cell-based; settings: minimum concentration at which axonal degeneration was suppressed (DI 0.3 or less), 24 hours after axotomy; for minimal effective concentration: Mus musculus, read-out: Evaluation on protection against degeneration
How it was run: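 Embryonic ICR mouse DRG explants were cultured 7–8 days in nicotinamide-free neuronal medium with NGF, then axotomized by removing the cell bodies. Compound (100 pM–10 µM final, 0.1% DMSO) was added within 30 min, and neurites were imaged 24 h later. The result is the lowest concentration giving degeneration index ≤0.3.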

hSARM1 = target: T2, hSARM1 (Homo sapiens, UniProt Q6SZW1); assay: Human SARM1 activity measurement in HEK293 cells transiently transfected with ΔN-hSARM1 (PC6 fluorescent probe); format: cell-based; set-up: expressed in transfected cells; host or cells: HEK293, pcDNA3 expression vector; settings: inhibition rate; compound 30 µM; PC6 50 µM; HEK293 cells expressing ΔN-hSARM1; approximately 48 hours from transfection; read-out: Evaluation on hSARM1 inhibitory
T2 sequence (Q6SZW1 28-724): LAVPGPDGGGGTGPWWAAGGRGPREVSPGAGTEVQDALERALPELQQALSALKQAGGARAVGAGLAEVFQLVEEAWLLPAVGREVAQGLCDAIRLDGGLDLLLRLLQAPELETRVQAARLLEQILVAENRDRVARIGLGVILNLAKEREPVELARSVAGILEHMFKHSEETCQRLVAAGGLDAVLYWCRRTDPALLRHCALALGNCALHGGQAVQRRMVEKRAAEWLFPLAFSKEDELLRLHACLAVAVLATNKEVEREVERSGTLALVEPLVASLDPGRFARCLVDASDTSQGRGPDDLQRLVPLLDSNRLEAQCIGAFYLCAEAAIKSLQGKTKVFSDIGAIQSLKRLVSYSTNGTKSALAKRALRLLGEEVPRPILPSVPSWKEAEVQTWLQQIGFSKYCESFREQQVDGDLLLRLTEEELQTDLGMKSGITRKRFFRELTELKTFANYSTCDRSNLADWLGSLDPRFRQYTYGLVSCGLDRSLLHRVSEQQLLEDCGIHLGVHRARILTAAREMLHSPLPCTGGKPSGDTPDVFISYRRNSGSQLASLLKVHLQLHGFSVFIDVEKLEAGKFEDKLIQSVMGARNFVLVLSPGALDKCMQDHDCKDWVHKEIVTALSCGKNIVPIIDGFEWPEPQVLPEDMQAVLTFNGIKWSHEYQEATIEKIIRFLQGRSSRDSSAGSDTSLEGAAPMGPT
How it was run: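 HEK293 cells in nicotinamide-free DMEM with 5 μM nicotinamide, transiently transfected with mitochondrial-targeting-deleted ΔN-hSARM1; PC6 base-exchange fluorescent probe (50 μM) plus compound (30 μM) added ~8 h post-transfection. Fluorescence (ex 405/em 525 nm) read ~48 h from transfection; inhibition % versus transfected DMSO control, untransfected background subtracted.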

Row | Structure (SMILES) | IC50 [1] [nM] | inhibition at 30 µM (hSARM1) [%] | Evaluation on NAMPT inhibitory [1] | minimal effective concentration [2] [µM] | Evaluation on protection against degeneration [2]
1 | O=C(NCCCOc1ccc(CNC(=O)c2ccccc2)cc1)c1cccnc1 [compound 15] | ≥ 100 | > 75 | – | ≤ 0.01 | –
2 | O=C(CCc1ccc(C(F)(F)F)cc1)Nc1ccc(CNC(=O)c2cccnc2)cn1 [Compound 169] | – | > 75 | ○ | ≤ 0.01 | –
3 | O=C(NCc1ccc(NC(=O)C2CCCCC2)nc1)c1cccnc1 [Compound 113] | – | > 75 | ○ | ≤ 0.01 | –
4 | N#Cc1ccc(CC(=O)Nc2ccc(CNC(=O)c3cccnc3)cn2)cc1 [Compound 154] | ≥ 100 | > 75 | – | ≤ 0.01 | –
5 | CCCC(=O)Nc1ccc(CNC(=O)c2cccnc2)cn1 [Compound 158] | – | > 25 | ○ | ≤ 0.01 | –
6 | O=C(COc1cccc(C(F)(F)F)c1)Nc1ccc(CNC(=O)c2cccnc2)cn1 [Compound 175] | ≥ 100 | > 75 | – | 0.01 to 0.1 | –
7 | O=C(/C=C/c1cccnc1)Nc1cccc(NC(=O)/C=C/c2cccnc2)n1 [compound 59] | – | > 25 | ○ | – | A (A ≤ 0.01 µM)
8 | O=C(NCCOCCOCCNC(=O)c1cccnc1)c1cccnc1 [compound 34] | – | > 75 | ○ | ≤ 0.01 | –
9 | COc1ccc(C(=O)Nc2ccc(CNC(=O)c3cccnc3)cn2)cc1 [Compound 129] | – | > 75 | ○ | ≤ 0.01 | –
10 | C#CCOCCOCCNC(=O)c1cccnc1 [compound 11] | – | > 10 | ○ | 0.01 to 0.1 | –
11 | O=C(NCc1cccc(CNC(=O)c2cccnc2)n1)c1ccncc1 [Compound 151] | – | > 25 | ○ | 0.1 to 1 | –
12 | CC(=O)NCc1ccc(OCCOCCNC(=O)c2cccnc2)cc1 [compound 21] | – | > 50 | ○ | ≤ 0.01 | –
13 | O=C(/C=C/c1cccnc1)Nc1ccc(CNC(=O)c2cccnc2)cn1 [compound 75] | ≥ 100 | > 75 | – | ≤ 0.01 | –
14 | O=C(NCCCOCCOCCCNC(=O)c1cnc2ccccc2c1)c1cccnc1 [Compound 185] | – | > 25 | ○ | 0.1 to 1 | –

Further lines, with some results ahead:

Row | IC50 [1] [nM] | inhibition at 30 µM (hSARM1) [%] | Evaluation on NAMPT inhibitory [1] | Structure (SMILES) | minimal effective concentration [2] [µM] | Evaluation on protection against degeneration [2]
15 | – | > 10 | ○ | O=C(NCCCNS(=O)(=O)c1ccccc1[N+](=O)[O-])c1cccnc1 [compound 63] | 0.1 to 1 | –
16 | – | > 50 | ○ | CC(C)(C)OC(=O)NCCCOCCOCCCNC(=O)c1cccnc1 [compound 70] | ≤ 0.01 | –
17 | ≥ 100 | > 75 | – | O=C(/C=C/c1cccnc1)NCc1cccc(NC(=O)/C=C/c2cccnc2)c1 [compound 61] | ≤ 0.01 | –
18 | – | > 50 | ○ | CC(C)(C)OC(=O)NCCOCCOCCNC(=O)c1cccnc1 [compound 71] | – | A (A ≤ 0.01 µM)
19 | – | > 50 | ○ | O=C(NCc1ccc(NC(=O)c2ccc(OC(F)(F)F)cc2)nc1)c1cccnc1 [compound 87] | ≤ 0.01 | –
20 | – | > 75 | ○ | O=C(NCc1ccc(NC(=O)c2cccc(C(F)(F)F)c2)nc1)c1cccnc1 [compound 82] | ≤ 0.01 | –
21 | – | > 50 | ○ | O=C(NCCCCCCN1CCN(CCOC(=O)c2cccnc2)CC1)c1cccnc1 [compound 95] | ≤ 0.01 | –
